# In patent EP0361645B1, “Organic hydrazine derivatives for pharmaceutical use” (ROHM AND HAAS COMPANY, priority 1988, dated 1990):
# Read-outs that look alike come from different tables or passages of the source.
# Target: T1, ecdysone receptor (Drosophila melanogaster, UniProt P34021)
# T1 construct: endogenous in cells; host or cells: Drosophila Kr (Kc) cells, undiluted cytosolic extract
# T1 sequence (P34021 1-878): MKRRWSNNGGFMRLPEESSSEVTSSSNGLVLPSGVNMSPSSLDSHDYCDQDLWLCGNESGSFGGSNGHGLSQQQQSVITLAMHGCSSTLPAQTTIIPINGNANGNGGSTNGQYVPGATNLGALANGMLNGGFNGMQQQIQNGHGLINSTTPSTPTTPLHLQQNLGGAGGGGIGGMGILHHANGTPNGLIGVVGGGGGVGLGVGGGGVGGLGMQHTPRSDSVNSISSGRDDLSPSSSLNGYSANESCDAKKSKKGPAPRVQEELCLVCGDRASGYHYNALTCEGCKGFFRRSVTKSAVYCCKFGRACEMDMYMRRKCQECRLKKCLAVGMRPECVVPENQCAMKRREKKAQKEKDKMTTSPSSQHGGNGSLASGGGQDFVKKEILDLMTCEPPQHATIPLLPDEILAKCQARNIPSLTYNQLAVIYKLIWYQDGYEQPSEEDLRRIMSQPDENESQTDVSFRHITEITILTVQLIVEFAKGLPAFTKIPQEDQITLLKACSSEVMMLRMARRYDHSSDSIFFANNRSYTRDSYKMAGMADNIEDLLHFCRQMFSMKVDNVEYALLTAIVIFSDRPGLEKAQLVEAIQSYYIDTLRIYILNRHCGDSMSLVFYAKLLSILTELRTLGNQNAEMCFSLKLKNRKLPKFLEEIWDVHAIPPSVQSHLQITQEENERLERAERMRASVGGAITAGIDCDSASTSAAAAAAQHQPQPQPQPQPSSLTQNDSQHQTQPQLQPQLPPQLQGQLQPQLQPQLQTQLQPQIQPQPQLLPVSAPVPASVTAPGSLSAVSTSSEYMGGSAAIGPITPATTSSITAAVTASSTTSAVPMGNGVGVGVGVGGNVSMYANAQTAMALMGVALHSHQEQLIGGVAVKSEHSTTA
# T1 sequence (P20153 1-508 partner): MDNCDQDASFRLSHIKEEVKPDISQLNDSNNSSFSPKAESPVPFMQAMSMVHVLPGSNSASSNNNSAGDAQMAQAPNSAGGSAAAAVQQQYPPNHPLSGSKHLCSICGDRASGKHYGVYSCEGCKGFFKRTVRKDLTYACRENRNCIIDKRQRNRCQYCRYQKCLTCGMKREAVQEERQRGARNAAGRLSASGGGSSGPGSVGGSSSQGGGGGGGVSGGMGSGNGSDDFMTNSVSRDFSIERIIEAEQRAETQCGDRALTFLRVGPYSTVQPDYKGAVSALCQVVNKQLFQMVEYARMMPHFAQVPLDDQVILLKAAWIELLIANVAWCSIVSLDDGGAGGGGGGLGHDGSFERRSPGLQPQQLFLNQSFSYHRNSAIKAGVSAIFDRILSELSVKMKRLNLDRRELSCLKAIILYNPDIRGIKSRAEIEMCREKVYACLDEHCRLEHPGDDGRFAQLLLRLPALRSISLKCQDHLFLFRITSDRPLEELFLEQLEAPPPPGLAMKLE
# Assay: ^3H-ponasterone A binding to / displacement from Kr cell cytosolic receptor extracts
# Experimental: The invention will now be further described by way of exemplification and by reference to the drawings in which; • Figure 1. Both 20-hydroxyecdysone and Example No. 3 induce process elaboration (A) and inhibition of cell proliferation (B) in Kr cells in a dose-dependent manner. Initial cell density was 2 X 10^6 cells/ml; after incubation of 1 ml aliquots of the cells with the compound for 48 hours the cells were triturated gently and the percentage of cells responding (with processes longer than approximately 17 um, see Cherbas et al. 189 Wilhelm Roux's Arch. 1 (1980)) and total cell density was determined by hemocytom- eter counting, relative to ethanol (1 ul)-treated controls. Determinations were in triplicate for each dose. […] Induction of acetylcholinesterase by varying concentrations of 20-hydroxyecdysone and Example No. 3. Kr cells at an initial density of 3 X 10^6 cells/ml (10 ml per sample) were incubated with the agonist for three days. After harvesting, by centrifugation at 3000 X g, the cell pellets were washed with Robb's Drosophila saline (18, 2 X 5 ml) at 4 ° C, then lysed by sonication in 1 ml of phosphate buffer (pH 7.4, I = 0.1 M) containing 0.5 M NaCI, 0.25 M EDTA and 0.5% TRITON? X-100. See Cherbas, 197 Science 275 (1977). Triton is a registered trademark of Rohm and Haas Company for a alkylaryl polyoxyethylene glycol surfactant. After centrifugation at 16,000 X g, the supernatants were assayed for acetylcholinesterase activity by an adaptation of the method of Ellman et al., 7 Biochem. Pharmacol. 88 (1961), by subtracting out any 412 nm absorbance observed in incubations in the presence of 2 X 10-5 eserine sulfate. Thus reaction mixtures contained 50 ul of enzyme extract, 20 ul eserine (blank tubes only) and 1.0 ml of 0.5 mM acetylthiocholine, 0.3 mM dithiobisnitrobenzoic acid in phosphate buffer (pH 7.4, I = 0.1 M). Incubations were at 25 ° C for two hours; reactions in active tubes were terminated by addition of eserine. Absorbance at 412 nm was then measured. Protein concentration in extracts was measured by the Biorad method. […] Scatchard plot of ^3H-ponasterone A binding to Kr cell cytosolic receptor extracts in the presence of differing concentrations of Example No. 3. Cytosolic extract preparation and ecdysteroid receptor assays were essentially as described in Sage, 111 Meth. in Enzymol. 458 (1985). Example No. 3 was added in 1 ul DMSO to 50 ul of radioligand in 10 mM Tris buffer (pH 7.2) and 50 ul of undiluted cytosol extract. After incubation overnight at 0.5 ° C, bound label was separated from free by addition of 300 ul 1% HCI-washed charcoal (Sigma) and 0.1% Dextran T70 (Pharmacia) in Tris buffer, centrifugation (13,000 X g, 3 min, 4 ° C) and liquid scintillation counting of a 300 ul aliquot of the supernatant in 15 ml Hydrofluor (National Diagnostics). Points are means of duplicate determinations. […] Relative ability of 20 hydroxyecdysone and Example No. 3 to displace ^3H-ponasterone A from cytosolic receptor extracts. Conditions were as in Figure 3 except that only 0.5 nM ponasterone A was used. • Points are means of duplicate determinations. For 20-hydroxyecdysone EC50 = 0.1 uM while for Example No. 3 EC50 = 3.0 uM. Control binding = 10 femtomoles ^3H-ponasterone A bound per mg cytosol protein. • Figure 4. Effects of 10 ppm Example No. 3 administered in artificial diet to newly ecdysed fourth instar (L4) M. sexta, monitoring (A)immunoreactive hemolymph ecdysteroid titers and (B)weight gain. Ecdysteroid titers were measured by a radioimmunoassay adapted from Warren et al., 40 Experientia 393 (1984) with Protein A-Staph. aureus suspension (Sigma) used as the reagent to separate bound from free ligand. The antiecdysone antiserum was formed by reaction of 20-hydroxyecdysone with carboxymethox- yamine resulting in the corresponding ecdysteroid 6-oxime acid. […] All samples were diluted appropriately in borate buffer pH 8.0 and assayed in duplicate. […]
SMILES,"IC50 (0.5 nM ponasterone A (Figure 3B legend), read-out: EC50, displacement of ^3H-ponasterone A from cytosolic receptor extracts) [µM]",fold greater apparent affinity than Example No. 3 (ratio of IC50) [fold],IC50 [µM],"mode of inhibition of ^3H-ponasterone A binding (Kd increases, Bmax remains the same)",fold lower apparent binding affinity than 20-hydroxyecdysone (Kr cell extracts) [fold]
"CC(C)(O)CC[C@@H](O)[C@](C)(O)[C@H]1CC[C@@]2(O)C3=CC(=O)[C@@H]4C[C@@H](O)[C@@H](O)C[C@]4(C)[C@H]3CC[C@]12C [20-hydroxyecdysone, reference compound]",0.1,30,,,
"CC(C)(C)N(NC(=O)c1ccccc1)C(=O)c1ccccc1 [Example No. 3, N'-t-butyl-N,N'-dibenzoylhydrazine]",,,3,competitive mode of inhibition,30
